Laboratory results as given in US20150203517A1, “Prodrugs of Compounds that Enhance Antifungal Activity and Compositions of Said Prodrugs” (priority 2014, published 2015).
Counter-ions that a name gives are not always drawn.

Legend:
[1] = Saline solubility at 1.00 mg/mL and 0.50 mg/mL (with pH by indicator paper); type: physicochemical; settings: for pH at 1.00 mg/mL of MGCD290 in saline: final concentration of hydroxamate 1 1.00 mg/mL, pH indicator paper; for solubility at 1 h: saline or isotonic, thermodynamic from solid, 1.00 mg/mL as hydroxamate 1, shaken 1 hour, centrifuged, soluble = no precipitate formed, read-out: Soluble at 1.00 mg/mL of MGCD290 (Y/N)
Summary of the method: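 Prodrug was weighed to give 1.00 mg/mL hydroxamate equivalent in saline, vortexed 1 h and centrifuged, and diluted to 0.50 mg/mL if it precipitated. pH was checked by indicator paper. Stability in solution diluted 1:1 with saline was followed by HPLC-UV at 0, 6 and 24 h.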

[2] = Saline solubility at 10.00 mg/mL, 5.00 mg/mL and 2.50 mg/mL (with pH by pH meter); type: physicochemical; settings: saline or isotonic, thermodynamic from solid, concentration expressed as equivalent of Cpd 1, highest tested concentration soluble, read-out: Highest prodrug solubility in saline (equivalent of Cpd 1)
Experimental: The following procedures were used
Step 1. Sample preparation. An amount of the compound sample was precisely weighed to correspond to around 10 mg of the hydroxamate of compound 1, taking into account the mass of the leaving group and the salt factor if applicable. The sample was placed in a 16×125 mm glass screw cap tube. Saline was added so that the final concentration of hydroxamate 1 was 10.00 mg/mL. The tube was shaken for 1 hour on a Vortex apparatus then centrifuged at 3000 rpm (1800 rcf) for 5 minutes. If the compound example was soluble (no precipitate formed) then the pH was measured with a pH meter, and the procedure continued to step 2. If a precipitate formed then the sample was diluted with saline so that the final concentration of the hydroxamate of compound 1 became 5.00 mg/mL, and the shaking and centrifuging steps were repeated. If the compound example was soluble (no precipitate formed) then the pH was measured with a pH meter, and the procedure continued to step 2. If a precipitate formed then the sample was diluted with saline so that the final concentration of the hydroxamate of compound 1 became 2.50 mg/mL, and the shaking and centrifuging steps were repeated. If the compound example was soluble (no precipitate formed) then the pH was measured with a pH meter, and the procedure continued to step 2

[3] = Conversion of prodrugs to compound 1 in mouse plasma; type: in vitro ADME; settings: mouse plasma (Na-Heparin treated); for Prodrug loss at 0.5 hr / Prodrug loss at 1 hr: 37° C.; for Prodrug solubility in plasma: equivalent to 1.00 mg/mL of compound 1, * = Plasma quickly became cloudy
Experimental: (§1) Step 1. Sample preparation. A quantity of blank mouse plasma (Na-Heparin treated) was incubated at 37° C. for 30 minutes. An amount of the compound sample was precisely weighed to correspond to around 5.00 mg of the hydroxamate of compound 1, taking into account the mass of the leaving group and the salt factor if applicable. The sample was placed in a 16×125 mm glass screw cap tube. The incubated blank mouse plasma was added so that the final concentration of hydroxamate 1 was 1.00 mg/mL. The sample was sonicated for 30 seconds, shaken for 30 seconds on a Vortex apparatus, and run through the HPLC procedure of Step 2 to get a time point zero value. The samples were stored in an incubator at 37° C., and the HPLC analysis of Step 2 was repeated at 30 minutes and 1 hour
(§2) Step 2. Protein precipitation and HPLC analysis of plasma. A 50 μL aliquot of plasma was taken in a 1.5 mL Eppendorf vial, to which was added 200 μL of MeCN. The vial was capped and shaken on a Vortex apparatus for 30 seconds, then centrifuged at 13000 rpm (15700 rcf) for five minutes. When centrifuging was complete, 100 μL of the supernatant was placed in an injection vial containing an insert, to which was added 100 μL of 0.1% formic acid in water. The vial was capped and shaken on a Vortex apparatus for 30 seconds, and the contents were injected into the HPLC-UV instrument, and a comparison was made of the retention time, peak areas and level of degradation (if any) using the GDADI50 method.

[4] = Conversion of prodrugs to compound 1 in human plasma; type: in vitro ADME; settings: human plasma (Na-Heparin treated), 37° C.
Experimental: as §1, with “blank human” for “blank mouse”, “repeated in” for “repeated at”, “1 hour.” for “1 hour”
as §2
Step 3. Reference sample preparation. An amount of the compound sample was precisely weighed to correspond to around 5.00 mg of the hydroxamate of compound 1, taking into account the mass of the leaving group and the salt factor if applicable. The sample was placed in a 16×125 mm glass screw cap tube. A quantity of MeCN/H2O 50/50 v/v was added so that the final concentration of hydroxamate 1 was 1.00 mg/mL. An injection vial was filled with 100 μL of this sample stock solution and 900 μL of a solution of 40/60 MeCN/0.1% formic acid in water. The vial was capped and the contents were injected into the HPLC-UV instrument, and a comparison was made of the retention time, peak areas and level of degradation (if any) using the GDADI50 method.

SMILES | pH at 1.00 mg/mL of MGCD290 in saline [1] | solubility at 1 h [1] [µg/mL] | solubility at 1 h [2] [µg/mL] | Prodrug loss at 0.5 hr [3] [%] | Prodrug loss at 1 hr [3] [%] | Prodrug solubility in plasma [3] | Prodrug loss at 0.5 hr [4] [%] | Prodrug loss at 1 hr [4] [%]
COCCOCC(=O)NCCCC[C@H](NC(=O)COCCOC)C(=O)NCCC(=O)ONC(=O)Cc1ccc(CCCCc2ccccc2)cc1 [Compound 68] | 4.5-5 | > 1000 | 10000 | 100 | 100 | Yes* | 98.6 | 99.4
COCCOCCOCC(=O)NCCCC[C@H](NC(=O)COCCOCCOC)C(=O)NCCCC(=O)ONC(=O)Cc1ccc(CCCCc2ccccc2)cc1 [Compound 99, (S)—N,N-(6-Oxo-6-(4-oxo-4-(2-(4-(4-phenylbutyl)phenyl)acetamidooxy)butylamino)hexane-1,5-diyl)bis(2-(2-(2-methoxyethoxyl)ethoxy)acetamide)] | 4.5-5 | > 1000 | 2500 | 100 | 100 | Yes* | 22.7 | 89.1
NCC1(C(=O)ONC(=O)Cc2ccc(CCCCc3ccccc3)cc2)CC1 [Compound 54, N-(1-(aminomethyl)cyclopropanecarbonyloxy)-2-(4-(4-phenylbutyl)phenyl)acetamide] | 4-4.5 | > 1000 | 2500 | 62.6 | 100 | Yes | 50.9 | 71.6
NCCCC[C@H](N)C(=O)NCCC(=O)ONC(=O)Cc1ccc(CCCCc2ccccc2)cc1 [Compound 14, (S)-2,6-Diamino-N-(3-oxo-3-(2-(4-(4-phenylbutyl)phenyl)acetamidooxy)propyl)hexanamide di-hydrochloride] | 4-4.5 | > 1000 | 10000 | 100 | 100 | Yes* | 100 | 100.0
NCCNCC(=O)NCCC(=O)ONC(=O)Cc1ccc(CCCCc2ccccc2)cc1 [Compound 135, 2-(2-aminoethylamino)-N-(3-oxo-3-(2-(4-(4-phenylbutyl)phenyl)acetamidooxy)propyl) acetamide dihydrochloride] | 4.5-5 | > 1000 | 10000 | 100 | 100 | Yes* | 98.7 | 99.8
